Results published in patent publication US20070275464A1, “Chitin Oligosaccharide Elicitor-Binding Proteins” (NATIONAL INSTITUTE OF AGROBIOLOGICAL SCIENCES, priority 2004, published 2007).

Assays:
CEBiP-RNAi #6 rice cells = assay: Microarray analysis of elicitor-responsive genes, CEBiP-RNAi #6 cultured rice cells; format: cell-based
From the text: (§1) An oligoarray (Agilent) produced from a rice full-length cDNA database was used for the microarray analyses. For the preparation of Cyanine 3 (Cy3)- and Cyanine 5(Cy5)-labeled cRNAs, RNAs isolated from each of the cultured cells of NT and two kinds of CEBiP-RNAi cultured rice cells treated with (GlcNAc)8 for two hours ((GlcNAc)8-NT, (GlcNAc)8-CEBiP-RNAi #3, and (GlcNAc)8-CEBiP-RNAi #6) as well as of cultured cells treated with water as controls were used. Methods for Cy3- and Cy5-labeling and methods for hybridizing the Cy3- and Cy5-labeled samples with slide glasses onto which 22K rice oligoprobes have been attached were carried out according to the protocol from Agilent. The combinations of hybridization reagents that were used were Cy5-labeled (GlcNAc)8-NT/Cy3-labeled NT; [2] Cy5-labeled (GlcNAc)8-CEBiP-RNAi #3/Cy3-labeled CEBiP-RNAi #3; and [3] Cy5-labeled (GlcNAc)8-CEBiP-RNAi #6/Cy3-labeled CEBiP-RNAi #6. Furthermore, experiments in which the labeling reagents were swapped (the labeled forms were interchanged) were also performed. The obtained results were analyzed at http://tos.nias.affrc.go.jp/cgi-bin/tos17/array.cgi.

NT cultured rice cells = assay: Microarray analysis of elicitor-responsive genes, NT cultured rice cells; format: cell-based
From the text: as §1

rice protoplasts = assay: Reactive oxygen production in rice protoplasts, luminol method; format: cell-based, Oryza sativa L. cv. Nipponbare; settings: 1 μL of 100 μg/mL (GlcNAc)8, 15 minutes
Experimental: Protoplasts were prepared from cultured rice cells, and the effect of the anti-Con A-CEBiP antibodies on elicitor-responsive reactive oxygen production was examined.
Cultured rice cells were strained through a metal mesh. Four days later, these cells were placed into 14 mL of 0.1% CaCl2, 0.02% MES, 9% Mannitol solution (pH 5.6) containing 2% Cellurase RS (Yakult) and 0.05% Pectolyase Y-23, and then gently shaken at 30° C. for six hours. Cells were filtered through a 25 μm nylon mesh, and the cells on the mesh were washed with 20 mL of Washing buffer (0.1% CaCl2/0.4 M Mannitol) (Nishimura, N., Tanabe, S., He, D.-Y, Yokota, T., Shibuya, N. and Minami, E. Plant Physiol. Biochem., 39, 1105-1110 (2001)). The protoplasts were collected into a 50 mL Falcon tube and recovered by centrifugation at 600 rpm for five minutes. […]
25 μL of the reacted solution, 400 μL of 50 mM potassium phosphate buffer (pH 7.9), 25 μL of 1.1 mM luminol, and 50 μL of 14 mM potassium ferricyanide were stirred in a tube, and immediately thereafter, a chemiluminescence count was measured for ten seconds using a luminometer (Turner Designs TD-20/20, Sunnyvale, Calif.). H2O2 concentration was calculated by producing a standard curve after measuring the luminescence by a commercially available H2O2 solution (aqueous 30% H2O2 solution, Wako Pure Chemical Industry).

NT rice cells = assay: Reactive oxygen production due to elicitors in NT cultured rice cells; format: cell-based, Oryza sativa L. cv. Nipponbare; settings: (GlcNAc)8 100 ng/mL; FIG. 16
Experimental: (§2) Reactive oxygen production due to sugar elicitor treatment in NT and CEBiP-RNAi cultured rice cells was analyzed as follows: NT rice calli and CEBiP-RNAi rice calli were placed into 100 mL Erlenmeyer flasks containing 30 mL of N6 medium. After culturing at 27° C. for one week, the cells were strained, 0.6 mL of cells were transferred to 30 mL of fresh medium and cultured for another four days. 60 mg or 100 mg of each of the cultured cells were placed into a 2 mL tube, 1 mL of fresh N6 medium was added, and the cells were cultured overnight. (GlcNAc)8 (100 ng/mL), Pseudomonas aeruginosa-derived lipopolysaccharide (LPS, 50 μg/mL, Sigma), and (GlcNH2)7 (2 μg/mL) were used as elicitors. An elicitor was added to NT and CEBiP-RNAi cultured rice cells, treatment was carried out for 30 minutes or two hours, then 25 μL of the medium solution was sampled for reactive oxygen measurements. As a control, a same amount of distilled water (DW) was added, and similar treatments were carried out. Reactive oxygen was measured by adding 25 μL of the reacted solution, 400 μL of 50 mM potassium phosphate buffer (PK, pH 7.9), 25 μL of 1.1 mM luminol, and 50 μL of 14 mM potassium ferricyanide to a tube, mixing, then immediately measuring chemiluminescence counts for ten seconds in a luminometer (Turner Design TD-20/20, Sunnyvale, Calif.).

CEBiP-RNAi rice cells = assay: Reactive oxygen production due to elicitors in CEBiP-RNAi cultured rice cells; format: cell-based, Oryza sativa L. cv. Nipponbare; settings: (GlcNH2)7 2 μg/mL
Experimental: as §2

CEBiP gene expression = assay: Effect of elicitor on CEBiP expression in cultured cells (FIG. 10); format: cell-based, rice
[1] = (GlcNAc)8-CEBiP-RNAi #6/CEBiP-RNAi #6 area, two hours
[2] = (GlcNAc)8 two hours vs water, CEBiP-RNAi #6 cells
[3] = CEBiP-RNAi #6 cells vs non-transformant
[4] = (GlcNAc)8-NT/NT area, two hours
[5] = (GlcNAc)8 two hours vs water, NT cultured rice cells

CC(=O)N[C@H]1[C@H](O[C@H]2[C@H](O)[C@@H](NC(C)=O)[C@H](O[C@H]3[C@H](O)[C@@H](NC(C)=O)[C@H](O[C@H]4[C@H](O)[C@@H](NC(C)=O)C(O)O[C@@H]4CO)O[C@@H]3CO)O[C@@H]2CO)O[C@H](CO)[C@@H](O[C@@H]2O[C@H](CO)[C@@H](O[C@@H]3O[C@H](CO)[C@@H](O[C@@H]4O[C@H](CO)[C@@H](O[C@@H]5O[C@H](CO)[C@@H](O)[C@H](O)[C@H]5NC(C)=O)[C@H](O)[C@H]4NC(C)=O)[C@H](O)[C@H]3NC(C)=O)[C@H](O)[C@H]2NC(C)=O)[C@@H]1O (stereo partly shown) [(GlcNAc)8]
number of genes whose expression level decreased (CEBiP-RNAi #6 rice cells; [1]): 90 genes
number of genes whose expression level increased (CEBiP-RNAi #6 rice cells; [1]): 361 genes
FOLD INCREASE RNAi #6 AK058891 β-1.3 glucanase (CEBiP-RNAi #6 rice cells; [2]): 11.4 fold
FOLD INCREASE RNAi #6 AK060582 Replication protein A1(Os-RPA1) (CEBiP-RNAi #6 rice cells; [2]): 2.8 fold
FOLD INCREASE RNAi #6 AK060834 Calreticulin (CEBiP-RNAi #6 rice cells; [2]): 14.2 fold
FOLD INCREASE RNAi #6 AK065812 Zea mays NADPH HC toxin reductase (CEBiP-RNAi #6 rice cells; [2]): 16.0 fold
FOLD INCREASE RNAi #6 AK066784 Small GTP-binding protein (rab5A) (CEBiP-RNAi #6 rice cells; [2]): 2.5 fold
FOLD INCREASE RNAi #6 AK067690 NAC Transcription factor (CEBiP-RNAi #6 rice cells; [2]): 3.4 fold
FOLD INCREASE RNAi #6 AK068115 Harpin induced protein (CEBiP-RNAi #6 rice cells; [2]): 10.1 fold
FOLD INCREASE RNAi #6 AK068993 PAL (CEBiP-RNAi #6 rice cells; [2]): 2.9 fold
FOLD INCREASE RNAi #6 AK072235 Cysteine proteinase (CEBiP-RNAi #6 rice cells; [2]): 5.5 fold
FOLD INCREASE RNAi #6 AK100959 beta-Expansin(EXPB3) (CEBiP-RNAi #6 rice cells; [2]): 5.4 fold
FOLD INCREASE RNAi #6 AK102192 β-Galactosidase (CEBiP-RNAi #6 rice cells; [2]): 2.8 fold
FOLD INCREASE RNAi #6 AK103094 Laccase (CEBiP-RNAi #6 rice cells; [2]): 2.1 fold
FOLD INCREASE RNAi #6 AK103707 Ribosome inactivating protein 2 (CEBiP-RNAi #6 rice cells; [2]): 27.8 fold
genes of the 746 increased in NT showing a suppression of two times or more (CEBiP-RNAi #6 rice cells; [3]): 45 genes
genes of the 746 increased in NT showing suppression of two times or more or loss of elicitor responsiveness (CEBiP-RNAi #6 rice cells; [3]): 530 genes
share of the 746 increased genes showing suppression of two times or more or loss of elicitor responsiveness (CEBiP-RNAi #6 rice cells; [3]): 71%
genes of the 361 increased in CEBiP-RNAi #6 with increased expression levels compared to NT cells (CEBiP-RNAi #6 rice cells; elicitor treatment): one hundred
genes whose expression level decreased with equivalent response in non-transformant and CEBiP-RNAi #6 rice cells (CEBiP-RNAi #6 rice cells; elicitor treatment): 44 genes
genes whose expression level increased with equivalent response in non-transformant and CEBiP-RNAi #6 rice cells (CEBiP-RNAi #6 rice cells; elicitor treatment): 216 genes
share of the 361 increased genes with increased expression levels compared to NT cells (CEBiP-RNAi #6 rice cells; elicitor treatment): approximately 28%
genes decreased in NT showing suppression of two times or more or a loss in CEBiP-RNAi #6 (CEBiP-RNAi #6 rice cells; vs non-transformants): 176 genes
share of genes decreased in NT showing suppression of two times or more or a loss in CEBiP-RNAi #6 (CEBiP-RNAi #6 rice cells; vs non-transformants): 80%
number of genes whose expression level decreased (NT cultured rice cells; [4]): 220 genes
number of genes whose expression level increased (NT cultured rice cells; [4]): 746 genes
FOLD INCREASE NT* AK058296 1-aminocyclopropane-1-carboxylate oxidase (NT cultured rice cells; [5]): 6.6 fold
FOLD INCREASE NT* AK058891 β-1.3 glucanase (NT cultured rice cells; [5]): 4.1 fold
FOLD INCREASE NT* AK060423 Alanine:glyoxylate aminotransferase like protein (NT cultured rice cells; [5]): 11.2 fold
FOLD INCREASE NT* AK060582 Replication protein A1(Os-RPA1) (NT cultured rice cells; [5]): 4.6 fold
FOLD INCREASE NT* AK060625 GDSL-motif lipase/hydrolase (NT cultured rice cells; [5]): 6.4 fold
FOLD INCREASE NT* AK060834 Calreticulin (NT cultured rice cells; [5]): 3.3 fold
FOLD INCREASE NT* AK063651 Harpin induced protein (NT cultured rice cells; [5]): 24.7 fold
FOLD INCREASE NT* AK066687 Shikimate kinase (NT cultured rice cells; [5]): 9.5 fold
FOLD INCREASE NT* AK066784 Small GTP-binding protein (rab5A) (NT cultured rice cells; [5]): 2.1 fold
FOLD INCREASE NT* AK067690 NAC Transcription factor (NT cultured rice cells; [5]): 2.4 fold
FOLD INCREASE NT* AK068115 Harpin induced protein (NT cultured rice cells; [5]): 43.1 fold
FOLD INCREASE NT* AK068993 PAL (NT cultured rice cells; [5]): 48.4 fold
FOLD INCREASE NT* AK069456 Peroxidase (NT cultured rice cells; [5]): 10.9 fold
FOLD INCREASE NT* AK071482 Caffeoyl-CoA 3-O-methyl-transferase (NT cultured rice cells; [5]): 11.3 fold
FOLD INCREASE NT* AK071598 Lipid transfer protein (NT cultured rice cells; [5]): 10.0 fold
FOLD INCREASE NT* AK072235 Cysteine proteinase (NT cultured rice cells; [5]): 4.3 fold
FOLD INCREASE NT* AK073072 CEBiP (NT cultured rice cells; [5]): 2.6 fold
FOLD INCREASE NT* AK100959 beta-Expansin(EXPB3) (NT cultured rice cells; [5]): 5.5 fold
FOLD INCREASE NT* AK101431 Patatin-like protein (NT cultured rice cells; [5]): 19.6 fold
FOLD INCREASE NT* AK102192 β-Galactosidase (NT cultured rice cells; [5]): 3.1 fold
FOLD INCREASE NT* AK103094 Laccase (NT cultured rice cells; [5]): 10.0 fold
FOLD INCREASE NT* AK105971 Pirin (NT cultured rice cells; [5]): 20.6 fold
production of reactive oxygen increase compared to the control (rice protoplasts): 1.7 times
production of reactive oxygen in NT rice cells, LPS treatment in NT defined as 100% (NT rice cells): approximately 86.3%

N[C@H]1[C@H](O[C@H]2[C@H](O)[C@@H](N)[C@H](O[C@H]3[C@H](O)[C@@H](N)[C@H](O[C@H]4[C@H](O)[C@@H](N)[C@H](O[C@H]5[C@H](O)[C@@H](N)[C@H](O[C@H]6[C@H](O)[C@@H](N)[C@H](O[C@H]7[C@H](O)[C@@H](N)C(O)O[C@@H]7CO)O[C@@H]6CO)O[C@@H]5CO)O[C@@H]4CO)O[C@@H]3CO)O[C@@H]2CO)O[C@H](CO)[C@@H](O)[C@@H]1O (stereo partly shown) [(GlcNH2)7]
reactive oxygen responsiveness in both CEBiP-RNAi lines (CEBiP-RNAi rice cells): Non-responsiveness

CC(=O)N[C@H]1[C@H](O[C@H]2[C@H](O)[C@@H](NC(C)=O)[C@H](O[C@H]3[C@H](O)[C@@H](NC(C)=O)[C@H](O[C@H]4[C@H](O)[C@@H](NC(C)=O)C(O)O[C@@H]4CO)O[C@@H]3CO)O[C@@H]2CO)O[C@H](CO)[C@@H](O[C@@H]2O[C@H](CO)[C@@H](O[C@@H]3O[C@H](CO)[C@@H](O[C@@H]4O[C@H](CO)[C@@H](O)[C@H](O)[C@H]4NC(C)=O)[C@H](O)[C@H]3NC(C)=O)[C@H](O)[C@H]2NC(C)=O)[C@@H]1O (stereo partly shown) [chitin oligosaccharide elicitor]
induction of expression of the target gene (CEBiP) (CEBiP gene expression): induce expression
